Laboratory results published in US20240391931A1 (Bristol-Myers Squibb Company, priority 2021, published 2024).

Columns and labels:
Type in all cases: biochemical
HER2 WT = molecular target: T1, HER2 WT (Homo sapiens, UniProt P04626); assay: Enzymatic assay HER2 WT (method a); conditions: [HER2 WT]=12.5 nM, [ATP]=25 μM, [Peptide 22]=1 μM
T1 construct: purchased ProQinase, Freiburg, Germany ERBB2 0108-0000-1
Method in brief: (§1)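 Microfluidic mobility-shift kinase assay with Peptide 22 (1 μM) in HEPES pH 7.5, MnCl2, MgCl2, Tween 20, TCEP. HER2 WT 12.5 nM and HER2 YVMA 5 nM each used 25 μM ATP; EGFR WT 2 nM used 1 mM ATP. IC50 came from initial-velocity (0–3600 s) percent inhibition, fitted to a variable-slope model.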

EGFR WT = molecular target: T2, EGFR WT (Homo sapiens, UniProt P00533); assay: Enzymatic assay EGFR WT (method c); conditions: [EGFR WT]=2 nM, [ATP]=1 mM, [Peptide 22]=1 μM
T2 construct: purchased Thermo Fisher, Carlsbad, CA ERBB1 PR7295B
T2 sequence (P00533 25-1210): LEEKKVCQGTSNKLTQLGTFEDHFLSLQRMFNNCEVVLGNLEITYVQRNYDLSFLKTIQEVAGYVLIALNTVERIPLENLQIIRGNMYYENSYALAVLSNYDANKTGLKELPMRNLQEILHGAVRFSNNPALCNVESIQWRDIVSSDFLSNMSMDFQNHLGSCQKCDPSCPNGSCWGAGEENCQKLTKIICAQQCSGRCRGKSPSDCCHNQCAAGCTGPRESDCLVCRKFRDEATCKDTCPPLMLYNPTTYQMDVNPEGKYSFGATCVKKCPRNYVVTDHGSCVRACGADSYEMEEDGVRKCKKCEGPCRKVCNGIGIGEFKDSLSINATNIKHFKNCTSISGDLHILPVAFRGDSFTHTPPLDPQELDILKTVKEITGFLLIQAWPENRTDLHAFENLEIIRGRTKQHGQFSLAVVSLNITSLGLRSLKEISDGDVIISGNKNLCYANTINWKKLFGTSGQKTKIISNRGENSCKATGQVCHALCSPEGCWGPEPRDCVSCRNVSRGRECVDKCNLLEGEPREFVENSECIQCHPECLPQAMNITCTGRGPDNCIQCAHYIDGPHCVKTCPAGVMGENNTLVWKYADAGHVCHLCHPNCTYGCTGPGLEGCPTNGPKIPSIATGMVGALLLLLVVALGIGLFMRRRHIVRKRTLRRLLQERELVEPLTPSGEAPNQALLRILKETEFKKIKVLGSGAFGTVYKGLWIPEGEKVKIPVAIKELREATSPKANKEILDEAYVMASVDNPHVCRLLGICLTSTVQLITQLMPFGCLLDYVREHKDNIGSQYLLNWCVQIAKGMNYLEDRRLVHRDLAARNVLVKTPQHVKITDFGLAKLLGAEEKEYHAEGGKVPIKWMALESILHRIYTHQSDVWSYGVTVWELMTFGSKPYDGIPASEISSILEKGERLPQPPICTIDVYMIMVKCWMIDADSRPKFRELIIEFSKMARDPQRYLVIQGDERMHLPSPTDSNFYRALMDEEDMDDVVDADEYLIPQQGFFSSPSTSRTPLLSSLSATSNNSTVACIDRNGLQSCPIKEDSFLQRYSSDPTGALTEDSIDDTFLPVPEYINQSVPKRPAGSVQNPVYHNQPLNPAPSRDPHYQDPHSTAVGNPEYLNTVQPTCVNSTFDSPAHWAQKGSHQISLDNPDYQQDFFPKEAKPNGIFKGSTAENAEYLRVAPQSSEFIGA
Method in brief: as §1

HER2YVMA = HER2YVMA (Homo sapiens, UniProt P04626, INS775YVMA); assay: Enzymatic assay HER2YVMA (method b); parameters: purchased Viva biotech, Shanghai, China custom purification; conditions: [HER2YVMA]=5 nM, [ATP]=25 μM, [Peptide 22]=1 μM
Chain of HER2YVMA (P04626 with tags, fused parts or gaps INS775YVMA): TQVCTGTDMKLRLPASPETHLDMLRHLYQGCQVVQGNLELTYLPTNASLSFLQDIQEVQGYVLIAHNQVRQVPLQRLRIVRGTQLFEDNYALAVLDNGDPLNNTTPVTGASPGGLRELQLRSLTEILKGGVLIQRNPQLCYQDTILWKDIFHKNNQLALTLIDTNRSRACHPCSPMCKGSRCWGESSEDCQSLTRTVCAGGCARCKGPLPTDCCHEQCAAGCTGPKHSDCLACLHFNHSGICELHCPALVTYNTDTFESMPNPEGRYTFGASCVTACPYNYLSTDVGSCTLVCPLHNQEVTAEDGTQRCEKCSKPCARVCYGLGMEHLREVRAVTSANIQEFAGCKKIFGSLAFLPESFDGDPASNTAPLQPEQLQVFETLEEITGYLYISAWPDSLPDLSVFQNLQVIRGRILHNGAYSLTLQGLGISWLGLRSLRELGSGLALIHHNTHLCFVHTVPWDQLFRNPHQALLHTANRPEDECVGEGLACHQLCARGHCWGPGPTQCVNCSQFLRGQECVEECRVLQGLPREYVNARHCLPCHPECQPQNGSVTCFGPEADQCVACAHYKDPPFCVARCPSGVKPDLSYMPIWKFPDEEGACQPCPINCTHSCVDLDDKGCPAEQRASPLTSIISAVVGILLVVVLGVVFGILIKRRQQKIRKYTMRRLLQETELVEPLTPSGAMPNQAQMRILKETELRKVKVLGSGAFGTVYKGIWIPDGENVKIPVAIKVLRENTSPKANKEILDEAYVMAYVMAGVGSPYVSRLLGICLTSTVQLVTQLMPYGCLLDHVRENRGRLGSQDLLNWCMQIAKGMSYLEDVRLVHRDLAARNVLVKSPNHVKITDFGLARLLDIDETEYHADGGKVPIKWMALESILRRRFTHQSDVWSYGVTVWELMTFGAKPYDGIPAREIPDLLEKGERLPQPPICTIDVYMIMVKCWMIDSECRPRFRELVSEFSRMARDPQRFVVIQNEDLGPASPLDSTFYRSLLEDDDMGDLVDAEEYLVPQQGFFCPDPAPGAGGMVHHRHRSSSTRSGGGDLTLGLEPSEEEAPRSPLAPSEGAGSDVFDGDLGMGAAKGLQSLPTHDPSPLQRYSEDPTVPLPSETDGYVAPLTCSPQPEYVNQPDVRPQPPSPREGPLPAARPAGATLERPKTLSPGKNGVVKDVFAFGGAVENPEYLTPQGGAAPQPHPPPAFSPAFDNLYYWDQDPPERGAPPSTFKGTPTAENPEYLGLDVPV
Method in brief: as §1

T1 sequence (P04626 23-1255): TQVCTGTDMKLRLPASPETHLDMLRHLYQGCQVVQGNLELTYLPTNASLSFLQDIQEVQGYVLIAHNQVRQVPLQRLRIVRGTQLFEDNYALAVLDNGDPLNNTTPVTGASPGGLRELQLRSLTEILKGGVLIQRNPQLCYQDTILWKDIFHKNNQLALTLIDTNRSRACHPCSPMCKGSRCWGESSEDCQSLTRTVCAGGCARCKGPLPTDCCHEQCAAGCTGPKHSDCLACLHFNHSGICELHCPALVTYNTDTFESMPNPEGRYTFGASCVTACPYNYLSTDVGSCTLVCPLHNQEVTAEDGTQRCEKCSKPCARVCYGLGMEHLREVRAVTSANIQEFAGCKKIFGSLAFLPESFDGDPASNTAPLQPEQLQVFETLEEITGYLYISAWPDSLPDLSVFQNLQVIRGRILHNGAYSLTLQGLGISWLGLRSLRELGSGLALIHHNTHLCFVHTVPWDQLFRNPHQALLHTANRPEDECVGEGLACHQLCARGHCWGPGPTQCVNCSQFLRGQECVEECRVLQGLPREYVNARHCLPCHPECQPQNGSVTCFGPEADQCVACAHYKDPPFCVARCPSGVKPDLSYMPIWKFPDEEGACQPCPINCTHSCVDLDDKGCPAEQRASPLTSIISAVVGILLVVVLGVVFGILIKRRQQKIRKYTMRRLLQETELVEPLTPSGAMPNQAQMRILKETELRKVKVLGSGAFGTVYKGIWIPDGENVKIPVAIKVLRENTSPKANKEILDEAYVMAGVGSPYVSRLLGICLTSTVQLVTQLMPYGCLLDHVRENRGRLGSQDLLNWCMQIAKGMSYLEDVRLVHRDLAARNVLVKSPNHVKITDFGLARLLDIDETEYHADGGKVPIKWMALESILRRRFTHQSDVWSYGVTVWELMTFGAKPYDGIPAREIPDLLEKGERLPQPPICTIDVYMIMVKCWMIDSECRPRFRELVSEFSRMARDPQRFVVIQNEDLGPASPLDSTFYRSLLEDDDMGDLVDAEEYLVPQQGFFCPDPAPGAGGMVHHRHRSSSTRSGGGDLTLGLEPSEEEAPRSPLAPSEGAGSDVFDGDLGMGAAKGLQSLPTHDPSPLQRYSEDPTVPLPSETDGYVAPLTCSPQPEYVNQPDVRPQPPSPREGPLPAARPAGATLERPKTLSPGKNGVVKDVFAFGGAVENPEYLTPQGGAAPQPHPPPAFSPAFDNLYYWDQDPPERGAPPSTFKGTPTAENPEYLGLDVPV

Compound	IC50 (HER2 WT) [nM]	IC50 (EGFR WT) [nM]	IC50 (HER2YVMA) [nM]
C=CC(=O)N1Cc2sc3ncnc(Nc4ccc(Oc5ccc(C)nc5)c(C)c4)c3c2C(C)C1 (stereo not drawn) [Compound 142, 1-(5-methyl-4-((3-methyl-4-((6-methylpyridin-3-yl)oxy)phenyl)amino)-5,6-dihydropyrido[4′,3′:4,5]thieno[2,3-d]pyrimidin-7(8H)-yl)prop-2-en-1-one]	< 100	1000 to 10000	< 100
Cc1ccc(Oc2ccc(Nc3ncnc4sc5c(c34)CN(C(=O)/C=C/CN(C)C)C5C)cc2C)cn1 (stereo not drawn) [Compound 153, (E)-4-(dimethylamino)-1-(7-methyl-4-((3-methyl-4-((6-methylpyridin-3-yl)oxy)phenyl)amino)-5,7-dihydro-6H-pyrrolo[3′,4′:4,5]thieno[2,3-d]pyrimidin-6-yl)but-2-en-1-one]	100 to 1000	> 10000	< 100
Cc1cc(Nc2ncnc3sc4c(c23)CCN(C(=O)/C=C/CN(C)C)C4)ccc1Oc1ccc(N(C)C)nc1 [Compound 158, (E)-4-(dimethylamino)-1-(4-((4-((6-(dimethylamino)pyridin-3-yl)oxy)-3-methylphenyl)amino)-5,8-dihydropyrido[4′,3′:4,5]thieno[2,3-d]pyrimidin-7(6H)-yl)but-2-en-1-one]	< 100	1000 to 10000	< 100
COc1ccc(Oc2ccc(Nc3ncnc4sc5c(c34)CCN(C(=O)/C=C/CN3CCOCC3)C5)cc2C)cn1 [Compound 164]	100 to 1000	> 10000	100 to 1000
Cc1ccc(Oc2ccc(Nc3ncnc4sc5c(c34)CCN(C(=O)/C=C/CN(C)C)CC5)cc2Cl)cn1 [Compound 167, (E)-1-(4-((3-Chloro-4-((6-methylpyridin-3-yl)oxy)phenyl)amino)-8,9-dihydro-5H-pyrimido[5′,4′:4,5]thieno[2,3-d]azepin-7(6H)-yl)-4-(dimethylamino)but-2-en-1-one]	100 to 1000	> 10000	100 to 1000
Cc1cc(Nc2ncnc3sc4c(c23)CCN(C(=O)/C=C/CN(C)C)CC4)ccc1Oc1ccn2ncnc2c1 [Compound 168]	< 100	> 10000	100 to 1000
Cc1ccc(Oc2ccc(Nc3ncnc4sc5c(c34)C(C)CN(C(=O)/C=C/CN(C)C)C5)cc2Cl)cn1 (stereo not drawn) [Compound 171, (E)-1-(4-((3-Chloro-4-((6-methylpyridin-3-yl)oxy)phenyl)amino)-5-methyl-5,6-dihydropyrido[4′,3′:4,5]thieno[2,3-d]pyrimidin-7(8H)-yl)-4-(dimethylamino)but-2-en-1-one]	< 100	> 10000	< 100
Cc1cc(Nc2ncnc3sc4c(c23)CCN(C(=O)/C=C/CN(C)C)CC4)ccc1Oc1ccn2ccnc2c1 [Compound 172, (E)-4-(Dimethylamino)-1-(4-((4-(imidazo[1,2-a]pyridin-7-yloxy)-3-methylphenyl)amino)-8,9-dihydro-5H-pyrimido[5′,4′:4,5]thieno[2,3-d]azepin-7(6H)-yl)but-2-en-1-one]	< 100	> 10000	< 100
COc1ccc(Oc2ccc(Nc3ncnc4sc5c(c34)CCN(C(=O)/C=C/CN(C)C)CC5)cc2C)cn1 [Compound 173, (E)-4-(Dimethylamino)-1-(4-((4-((6-methoxypyridin-3-yl)oxy)-3-methylphenyl)amino)-8,9-dihydro-5H-pyrimido[5′,4′:4,5]thieno[2,3-d]azepin-7(6H)-yl)but-2-en-1-one]	100 to 1000	> 10000	100 to 1000
Cc1ccc(Oc2ccc(Nc3ncnc4sc5c(c34)C(C)CN(C(=O)/C=C/CN3CCOCC3)C5)cc2C)cn1 (stereo not drawn) [Compound 174, (E)-1-(5-Methyl-4-((3-methyl-4-((6-methylpyridin-3-yl)oxy)phenyl)amino)-5,6-dihydropyrido[4′,3′:4,5]thieno[2,3-d]pyrimidin-7(8H)-yl)-4-morpholinobut-2-en-1-one]	100 to 1000	> 10000	< 100
Cc1ccc(Oc2ccc(Nc3ncnc4sc5c(c34)C(C)CN(C(=O)/C=C/CN(C)C(C)(C)C)C5)cc2C)cn1 (stereo not drawn) [Compound 175]	< 100	> 10000	< 100

Now from value to compound:

IC50 (HER2 WT) [nM]	IC50 (EGFR WT) [nM]	IC50 (HER2YVMA) [nM]	Compound
< 100	> 10000	< 100	Cc1cc(Nc2ncnc3sc4c(c23)CCN(C(=O)/C=C/CN(C)C)C4)ccc1Oc1ccn2ncnc2c1 [Compound 138, (E)-1-(4-((4-([1,2,4]triazolo[1,5-a]pyridin-7-yloxy)-3-methylphenyl)amino)-5,8-dihydropyrido[4′,3′:4,5]thieno[2,3-d]pyrimidin-7(6H)-yl)-4-(dimethylamino)but-2-en-1-one]
< 100	> 10000	< 100	C#CCOCCN(C)C/C=C/C(=O)N1CCc2c(sc3ncnc(Nc4ccc(Oc5ccc(C)nc5)c(C)c4)c23)C1 [Compound 139]
< 100	> 10000	< 100	COc1ccc(Oc2ccc(Nc3ncnc4sc5c(c34)CCN(C(=O)/C=C/CN3CC[C@H](CO)C3)C5)cc2C)cn1 [Compound 140]
< 100	> 10000	< 100	Cc1ccc(Oc2ccc(Nc3ncnc4sc5c(c34)C(C)N(C(=O)/C=C/CN(C)C)C5)cc2C)cn1 (stereo not drawn) [Compound 141, (E)-4-(dimethylamino)-1-(5-methyl-4-((3-methyl-4-((6-methylpyridin-3-yl)oxy)phenyl)amino)-5,7-dihydro-6H-pyrrolo[3′,4′:4,5]thieno[2,3-d]pyrimidin-6-yl)but-2-en-1-one]
< 100	1000 to 10000	< 100	COc1ccc(Oc2ccc(Nc3ncnc4sc5c(c34)CCN(C(=O)/C=C/CN3CC[C@@H](CO)C3)C5)cc2C)cn1 [Compound 143]
< 100	> 10000	100 to 1000	Cc1ccc(Oc2ccc(Nc3ncnc4sc5c(c34)CCN(C(=O)/C=C/CN3CCO[C@@H](CO)C3)C5)cc2C)cn1 [Compound 144]
< 100	1000 to 10000	< 100	Cc1ccc(Oc2ccc(Nc3ncnc4sc5c(c34)CCN(C(=O)/C=C/CN3CCCC(F)(CO)C3)C5)cc2C)cn1 (stereo not drawn) [Compound 150]
< 100	> 10000	< 100	Cc1ccc(Oc2ccc(Nc3ncnc4sc5c(c34)CCN(C(=O)/C=C/CN3CC(F)(CO)C3)C5)cc2C)cn1 [Compound 151]
< 100	> 10000	< 100	COc1ccc(Oc2ccc(Nc3ncnc4sc5c(c34)C(C)CN(C(=O)/C=C/CN(C)C)C5)cc2C)cn1 (stereo not drawn) [Compound 152, (E)-4-(dimethylamino)-1-(4-((4-((6-methoxypyridin-3-yl)oxy)-3-methylphenyl)amino)-5-methyl-5,8-dihydropyrido[4′,3′:4,5]thieno[2,3-d]pyrimidin-7(6H)-yl)but-2-en-1-one]
< 100	> 10000	< 100	Cc1ccc(Oc2ccc(Nc3ncnc4sc5c(c34)CCN(C(=O)/C=C/CN3CCC[C@@H](CO)C3)C5)cc2C)cn1 [Compound 154]
< 100	> 10000	< 100	Cc1ccc(Oc2ccc(Nc3ncnc4sc5c(c34)CCN(C(=O)/C=C/CN3CCC[C@H](CO)C3)C5)cc2C)cn1 [Compound 155]
< 100	> 10000	< 100	COc1ccc(Oc2ccc(Nc3ncnc4sc5c(c34)CCN(C(=O)/C=C/CN(C)C(C)(C)C)C5)cc2C)cn1 [Compound 163]
